In the kinase profiling compilation of Christmann-Franck et al. (2016):

Tests used:
Test in all cases: radiometric filter-binding kinase assay
[1] = test system: AKT2 (human), P31751 [S474D]
CAMKK2 (human) = CAMKK2 (human) (UniProt Q96RR4)
CHEK1 (human) = CHEK1 (human) (UniProt O14757)
CLK2 (human) = CLK2 (human) (UniProt P49760)
CSNK1D (human) = CSNK1D (human) (UniProt P48730)
DYRK1A (human) = DYRK1A (human) (UniProt Q13627)
EPHA4 (human) = EPHA4 (human) (UniProt P54764)
HIPK3 (human) = HIPK3 (human) (UniProt Q9H422)
IGF1R (human) = IGF1R (human) (UniProt P08069)
Chain of IGF1R (human) (P08069 whole entry, looked up): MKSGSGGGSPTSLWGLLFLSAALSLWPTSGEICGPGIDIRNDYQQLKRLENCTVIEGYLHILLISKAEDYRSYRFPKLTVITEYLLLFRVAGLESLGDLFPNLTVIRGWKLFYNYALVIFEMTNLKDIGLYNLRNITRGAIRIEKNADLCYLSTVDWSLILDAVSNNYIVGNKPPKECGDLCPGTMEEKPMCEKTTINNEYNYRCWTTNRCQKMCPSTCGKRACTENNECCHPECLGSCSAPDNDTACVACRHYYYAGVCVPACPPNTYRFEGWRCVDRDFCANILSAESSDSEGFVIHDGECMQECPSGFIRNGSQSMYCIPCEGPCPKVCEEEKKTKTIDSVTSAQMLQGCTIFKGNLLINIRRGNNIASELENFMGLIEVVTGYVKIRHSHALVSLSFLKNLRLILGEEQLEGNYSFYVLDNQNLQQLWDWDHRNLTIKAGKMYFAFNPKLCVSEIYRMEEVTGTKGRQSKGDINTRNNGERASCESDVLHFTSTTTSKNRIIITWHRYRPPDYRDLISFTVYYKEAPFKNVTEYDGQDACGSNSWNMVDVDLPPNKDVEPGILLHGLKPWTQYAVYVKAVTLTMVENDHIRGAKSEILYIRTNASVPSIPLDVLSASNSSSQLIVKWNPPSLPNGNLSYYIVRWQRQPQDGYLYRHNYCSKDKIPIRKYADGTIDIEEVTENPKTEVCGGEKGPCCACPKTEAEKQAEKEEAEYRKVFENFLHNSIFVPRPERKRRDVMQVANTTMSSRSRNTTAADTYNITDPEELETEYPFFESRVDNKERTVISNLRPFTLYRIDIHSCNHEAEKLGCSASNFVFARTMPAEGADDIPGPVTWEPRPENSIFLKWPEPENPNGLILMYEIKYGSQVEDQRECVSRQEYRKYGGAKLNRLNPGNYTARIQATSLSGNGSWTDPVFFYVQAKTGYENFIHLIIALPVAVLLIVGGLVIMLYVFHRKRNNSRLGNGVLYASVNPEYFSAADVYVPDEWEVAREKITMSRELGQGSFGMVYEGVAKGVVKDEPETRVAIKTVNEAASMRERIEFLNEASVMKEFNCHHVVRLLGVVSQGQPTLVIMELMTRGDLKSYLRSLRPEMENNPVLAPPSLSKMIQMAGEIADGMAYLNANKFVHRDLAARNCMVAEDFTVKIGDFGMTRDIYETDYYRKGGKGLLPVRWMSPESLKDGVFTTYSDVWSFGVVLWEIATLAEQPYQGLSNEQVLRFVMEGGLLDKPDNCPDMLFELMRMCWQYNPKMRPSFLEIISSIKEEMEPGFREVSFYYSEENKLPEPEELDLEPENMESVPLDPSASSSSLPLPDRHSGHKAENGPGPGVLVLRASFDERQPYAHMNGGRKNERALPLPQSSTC

IKBKE (human) = IKBKE (human) (UniProt Q14164)
IRAK4 (human) = IRAK4 (human) (UniProt Q9NWZ3)
MAP3K7 TAB1 (human) = MAP3K7 TAB1 (human) (UniProt Q15750+O43318)
MAPK12 (human) = MAPK12 (human) (UniProt P53778)
Chain of MAPK12 (human) (P53778 whole entry, looked up): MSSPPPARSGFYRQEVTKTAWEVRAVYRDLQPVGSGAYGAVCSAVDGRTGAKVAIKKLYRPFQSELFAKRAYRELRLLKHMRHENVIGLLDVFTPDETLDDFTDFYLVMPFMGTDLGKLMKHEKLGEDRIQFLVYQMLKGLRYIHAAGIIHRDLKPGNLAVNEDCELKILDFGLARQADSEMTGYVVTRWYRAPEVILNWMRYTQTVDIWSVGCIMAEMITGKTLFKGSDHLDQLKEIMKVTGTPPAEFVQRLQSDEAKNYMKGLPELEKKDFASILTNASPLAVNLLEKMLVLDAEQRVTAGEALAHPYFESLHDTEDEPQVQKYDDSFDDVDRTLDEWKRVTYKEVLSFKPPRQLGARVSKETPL

MAPK14 (human) = MAPK14 (human) (UniProt Q16539)
Chain of MAPK14 (human) (Q16539 whole entry, looked up): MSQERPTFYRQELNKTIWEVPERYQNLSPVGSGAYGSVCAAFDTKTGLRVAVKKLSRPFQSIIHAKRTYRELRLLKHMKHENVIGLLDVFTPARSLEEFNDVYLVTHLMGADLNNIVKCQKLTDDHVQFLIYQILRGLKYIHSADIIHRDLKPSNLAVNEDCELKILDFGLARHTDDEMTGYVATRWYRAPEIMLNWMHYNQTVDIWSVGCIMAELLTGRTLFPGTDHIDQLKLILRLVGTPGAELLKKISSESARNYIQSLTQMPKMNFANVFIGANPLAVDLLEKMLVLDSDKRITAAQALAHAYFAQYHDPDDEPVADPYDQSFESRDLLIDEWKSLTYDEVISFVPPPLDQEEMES

MAPK15 (human) = MAPK15 (human) (UniProt Q8TD08)
MAPK3 (human) = MAPK3 (human) (UniProt P27361)
MAPKAPK2 (human) = MAPKAPK2 (human) (UniProt P49137)
Chain of MAPKAPK2 (human) (P49137 whole entry, looked up): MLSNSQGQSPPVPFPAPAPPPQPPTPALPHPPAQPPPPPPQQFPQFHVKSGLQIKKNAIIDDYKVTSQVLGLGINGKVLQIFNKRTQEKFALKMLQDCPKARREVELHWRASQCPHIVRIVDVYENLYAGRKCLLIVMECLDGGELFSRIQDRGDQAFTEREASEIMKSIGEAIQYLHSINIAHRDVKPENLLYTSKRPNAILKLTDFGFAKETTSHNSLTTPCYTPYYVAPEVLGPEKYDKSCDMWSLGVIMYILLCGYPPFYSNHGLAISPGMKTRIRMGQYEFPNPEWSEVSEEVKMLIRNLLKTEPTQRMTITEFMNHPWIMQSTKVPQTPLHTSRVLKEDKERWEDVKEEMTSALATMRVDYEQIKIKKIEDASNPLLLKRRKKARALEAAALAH

MARK1 (human) = MARK1 (human) (UniProt Q9P0L2)
MARK2 (human) = MARK2 (human) (UniProt Q7KZI7)
MST4 (human) = MST4 (human) (UniProt Q9P289)
NEK2 (human) = NEK2 (human) (UniProt P51955)
NEK6 (human) = NEK6 (human) (UniProt Q9HC98)
[2] = test system: PAK2 (human), Q13177 [T402E]
Chain of PAK2 (human), Q13177 [T402E] (Q13177 whole entry T402E, looked up): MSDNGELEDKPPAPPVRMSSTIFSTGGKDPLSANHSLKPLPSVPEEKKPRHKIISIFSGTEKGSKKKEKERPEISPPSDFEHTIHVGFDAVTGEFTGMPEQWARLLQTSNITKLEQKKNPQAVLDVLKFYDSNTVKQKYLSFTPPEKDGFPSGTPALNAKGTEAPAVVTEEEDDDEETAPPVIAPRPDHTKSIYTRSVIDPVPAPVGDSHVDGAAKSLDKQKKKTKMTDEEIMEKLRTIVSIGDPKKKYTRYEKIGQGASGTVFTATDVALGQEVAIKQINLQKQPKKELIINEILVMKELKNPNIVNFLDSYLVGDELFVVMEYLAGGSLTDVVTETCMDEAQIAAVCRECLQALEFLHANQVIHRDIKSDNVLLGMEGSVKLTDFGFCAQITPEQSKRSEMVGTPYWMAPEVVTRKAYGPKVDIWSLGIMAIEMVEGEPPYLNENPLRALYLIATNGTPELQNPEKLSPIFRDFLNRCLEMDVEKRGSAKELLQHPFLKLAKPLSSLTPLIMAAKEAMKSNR

PAK4 (human) = PAK4 (human) (UniProt O96013)
PAK6 (human) = PAK6 (human) (UniProt Q9NQU5)
PAK7 (human) = PAK7 (human) (UniProt Q9P286)
PIM2 (human) = PIM2 (human) (UniProt Q9P1W9)
PIM3 (human) = PIM3 (human) (UniProt Q86V86)
PKN2 (human) = PKN2 (human) (UniProt Q16513)
PLK1 (human) = PLK1 (human) (UniProt P53350)
Chain of PLK1 (human) (P53350 whole entry, looked up): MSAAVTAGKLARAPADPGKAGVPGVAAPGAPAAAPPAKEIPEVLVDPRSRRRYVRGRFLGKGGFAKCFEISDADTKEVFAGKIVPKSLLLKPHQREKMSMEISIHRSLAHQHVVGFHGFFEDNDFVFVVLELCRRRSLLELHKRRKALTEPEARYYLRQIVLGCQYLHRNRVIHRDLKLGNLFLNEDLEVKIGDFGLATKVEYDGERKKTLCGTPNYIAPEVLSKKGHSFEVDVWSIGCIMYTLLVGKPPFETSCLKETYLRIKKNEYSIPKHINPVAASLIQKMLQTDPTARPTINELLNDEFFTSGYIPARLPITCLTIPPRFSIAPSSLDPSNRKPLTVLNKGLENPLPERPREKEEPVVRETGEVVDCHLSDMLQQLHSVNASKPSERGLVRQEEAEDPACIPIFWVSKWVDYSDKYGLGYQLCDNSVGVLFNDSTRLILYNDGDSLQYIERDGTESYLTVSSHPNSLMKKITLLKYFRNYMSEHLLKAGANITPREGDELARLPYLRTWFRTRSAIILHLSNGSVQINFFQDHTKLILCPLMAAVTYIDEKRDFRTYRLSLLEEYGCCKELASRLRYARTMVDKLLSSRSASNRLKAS

RIPK2 (human) = RIPK2 (human) (UniProt O43353)
RPS6KA3 KD1 KD2 (human) = RPS6KA3 KD1 KD2 (human) (UniProt P51812)
RPS6KA5 KD1 KD2 (human) = RPS6KA5 KD1 KD2 (human) (UniProt O75582)
[3] = test system: SGK1 (human), O00141 [S422D]
SRPK1 (human) = SRPK1 (human) (UniProt Q96SB4)

Chain of CHEK1 (human) (O14757 whole entry, looked up): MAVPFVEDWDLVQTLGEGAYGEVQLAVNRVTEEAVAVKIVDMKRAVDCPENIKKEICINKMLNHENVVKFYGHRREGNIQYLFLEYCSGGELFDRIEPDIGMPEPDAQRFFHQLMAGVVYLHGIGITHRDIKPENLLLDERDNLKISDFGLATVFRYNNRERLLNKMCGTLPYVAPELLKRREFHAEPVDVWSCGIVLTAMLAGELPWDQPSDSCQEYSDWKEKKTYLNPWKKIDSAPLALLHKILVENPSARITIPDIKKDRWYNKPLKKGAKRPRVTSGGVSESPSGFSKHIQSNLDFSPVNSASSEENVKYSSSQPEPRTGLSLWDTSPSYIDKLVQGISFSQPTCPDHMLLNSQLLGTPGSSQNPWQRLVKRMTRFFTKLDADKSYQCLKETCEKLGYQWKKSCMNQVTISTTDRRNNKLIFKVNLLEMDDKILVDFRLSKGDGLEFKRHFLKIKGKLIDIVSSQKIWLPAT
Chain of AKT2 (human), P31751 [S474D] (P31751 whole entry S474D, looked up): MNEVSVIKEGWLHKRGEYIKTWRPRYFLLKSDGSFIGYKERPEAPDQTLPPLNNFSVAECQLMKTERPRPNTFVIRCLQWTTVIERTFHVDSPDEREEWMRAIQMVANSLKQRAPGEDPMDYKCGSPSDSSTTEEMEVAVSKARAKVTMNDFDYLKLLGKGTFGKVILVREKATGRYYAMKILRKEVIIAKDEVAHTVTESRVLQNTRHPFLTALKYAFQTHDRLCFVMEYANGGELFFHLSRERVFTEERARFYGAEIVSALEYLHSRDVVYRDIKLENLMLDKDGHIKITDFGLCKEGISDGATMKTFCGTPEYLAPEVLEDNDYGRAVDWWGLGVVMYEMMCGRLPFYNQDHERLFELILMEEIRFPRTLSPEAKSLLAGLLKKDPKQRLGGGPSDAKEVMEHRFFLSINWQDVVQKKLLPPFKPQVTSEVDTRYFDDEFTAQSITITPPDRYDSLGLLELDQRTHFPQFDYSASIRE

With `CCCCCc1ccc(/C=C/[C@H](O)[C@@H](CO)NC)cc1` as the molecule, how does the residual activity ([1]; compound 0.1 µM) read?
The residual activity was 85%.

And the residual activity ([1]; compound 1.0 µM)?
Its residual activity is 90%.

And the residual activity ([1]; compound 10.0 µM)?
Its residual activity is 86%.

What about the residual activity (CAMKK2 (human); compound 0.1 µM) of the same molecule?
The residual activity was 97%.

And the residual activity (CAMKK2 (human); compound 1.0 µM)?
The residual activity was 81%.

What about the residual activity (CAMKK2 (human); compound 10.0 µM) of the same molecule?
The residual activity was 90%.

What about the residual activity (CHEK1 (human); compound 0.1 µM) of the same molecule?
Its residual activity is 96%.

And the residual activity (CHEK1 (human); compound 1.0 µM)?
The residual activity was 92%.

What about the residual activity (CHEK1 (human); compound 10.0 µM) of the same molecule?
The residual activity was 86%.

And the residual activity (CLK2 (human); compound 0.1 µM)?
The residual activity was 106%.

And the residual activity (CLK2 (human); compound 1.0 µM)?
The residual activity was 104%.

And the residual activity (CLK2 (human); compound 10.0 µM)?
The residual activity was 97%.

What about the residual activity (CSNK1D (human); compound 0.1 µM) of the same molecule?
The residual activity was 88%.

What about the residual activity (CSNK1D (human); compound 1.0 µM) of the same molecule?
The residual activity was 87%.

And the residual activity (CSNK1D (human); compound 10.0 µM)?
Its residual activity is 81%.

And the residual activity (DYRK1A (human); compound 0.1 µM)?
The residual activity was 83%.

What about the residual activity (DYRK1A (human); compound 1.0 µM) of the same molecule?
The residual activity was 91%.

And the residual activity (DYRK1A (human); compound 10.0 µM)?
Its residual activity is 84%.

And the residual activity (EPHA4 (human); compound 0.1 µM)?
The residual activity was 100%.

What about the residual activity (EPHA4 (human); compound 1.0 µM) of the same molecule?
The residual activity was 101%.

What about the residual activity (EPHA4 (human); compound 10.0 µM) of the same molecule?
The residual activity was 96%.

What about the residual activity (HIPK3 (human); compound 0.1 µM) of the same molecule?
Its residual activity is 118%.

What about the residual activity (HIPK3 (human); compound 1.0 µM) of the same molecule?
Its residual activity is 112%.

What about the residual activity (HIPK3 (human); compound 10.0 µM) of the same molecule?
Its residual activity is 102%.

What about the residual activity (IGF1R (human); compound 0.1 µM) of the same molecule?
Its residual activity is 87%.

What about the residual activity (IGF1R (human); compound 1.0 µM) of the same molecule?
The residual activity was 86%.

What about the residual activity (IGF1R (human); compound 10.0 µM) of the same molecule?
The residual activity was 93%.

And the residual activity (IKBKE (human); compound 0.1 µM)?
Its residual activity is 106%.

What about the residual activity (IKBKE (human); compound 1.0 µM) of the same molecule?
The residual activity was 95%.

And the residual activity (IKBKE (human); compound 10.0 µM)?
The residual activity was 86%.

And the residual activity (IRAK4 (human); compound 0.1 µM)?
The residual activity was 72%.

What about the residual activity (IRAK4 (human); compound 1.0 µM) of the same molecule?
The residual activity was 66%.

And the residual activity (IRAK4 (human); compound 10.0 µM)?
Its residual activity is 67%.

And the residual activity (MAP3K7 TAB1 (human); compound 0.1 µM)?
Its residual activity is 100%.

And the residual activity (MAP3K7 TAB1 (human); compound 1.0 µM)?
Its residual activity is 108%.

What about the residual activity (MAP3K7 TAB1 (human); compound 10.0 µM) of the same molecule?
The residual activity was 111%.

What about the residual activity (MAPK12 (human); compound 0.1 µM) of the same molecule?
Its residual activity is 93%.

And the residual activity (MAPK12 (human); compound 1.0 µM)?
Its residual activity is 80%.

And the residual activity (MAPK12 (human); compound 10.0 µM)?
The residual activity was 87%.

What about the residual activity (MAPK14 (human); compound 0.1 µM) of the same molecule?
Its residual activity is 95%.

And the residual activity (MAPK14 (human); compound 1.0 µM)?
Its residual activity is 87%.

What about the residual activity (MAPK14 (human); compound 10.0 µM) of the same molecule?
The residual activity was 80%.

And the residual activity (MAPK15 (human); compound 0.1 µM)?
The residual activity was 82%.

And the residual activity (MAPK15 (human); compound 1.0 µM)?
Its residual activity is 86%.

And the residual activity (MAPK15 (human); compound 10.0 µM)?
The residual activity was 77%.

And the residual activity (MAPK3 (human); compound 1.0 µM)?
The residual activity was 97%.

What about the residual activity (MAPK3 (human); compound 10.0 µM) of the same molecule?
Its residual activity is 85%.

And the residual activity (MAPKAPK2 (human); compound 0.1 µM)?
Its residual activity is 98%.

And the residual activity (MAPKAPK2 (human); compound 1.0 µM)?
Its residual activity is 95%.

What about the residual activity (MAPKAPK2 (human); compound 10.0 µM) of the same molecule?
The residual activity was 91%.

What about the residual activity (MARK1 (human); compound 0.1 µM) of the same molecule?
The residual activity was 114%.

What about the residual activity (MARK1 (human); compound 1.0 µM) of the same molecule?
Its residual activity is 112%.

What about the residual activity (MARK1 (human); compound 10.0 µM) of the same molecule?
The residual activity was 104%.

And the residual activity (MARK2 (human); compound 0.1 µM)?
The residual activity was 89%.

And the residual activity (MARK2 (human); compound 1.0 µM)?
Its residual activity is 97%.

And the residual activity (MARK2 (human); compound 10.0 µM)?
Its residual activity is 83%.

And the residual activity (MST4 (human); compound 0.1 µM)?
Its residual activity is 116%.

What about the residual activity (MST4 (human); compound 1.0 µM) of the same molecule?
The residual activity was 96%.

And the residual activity (MST4 (human); compound 10.0 µM)?
Its residual activity is 108%.

What about the residual activity (NEK2 (human); compound 0.1 µM) of the same molecule?
The residual activity was 110%.

What about the residual activity (NEK2 (human); compound 1.0 µM) of the same molecule?
The residual activity was 103%.

What about the residual activity (NEK2 (human); compound 10.0 µM) of the same molecule?
Its residual activity is 108%.

And the residual activity (NEK6 (human); compound 0.1 µM)?
Its residual activity is 92%.

And the residual activity (NEK6 (human); compound 1.0 µM)?
The residual activity was 86%.

What about the residual activity (NEK6 (human); compound 10.0 µM) of the same molecule?
The residual activity was 84%.

And the residual activity ([2]; compound 0.1 µM)?
The residual activity was 113%.

What about the residual activity ([2]; compound 1.0 µM) of the same molecule?
Its residual activity is 103%.

And the residual activity ([2]; compound 10.0 µM)?
Its residual activity is 113%.

What about the residual activity (PAK4 (human); compound 0.1 µM) of the same molecule?
The residual activity was 91%.

And the residual activity (PAK4 (human); compound 1.0 µM)?
The residual activity was 91%.

What about the residual activity (PAK4 (human); compound 10.0 µM) of the same molecule?
Its residual activity is 85%.

What about the residual activity (PAK6 (human); compound 0.1 µM) of the same molecule?
Its residual activity is 105%.

And the residual activity (PAK6 (human); compound 1.0 µM)?
The residual activity was 108%.

And the residual activity (PAK6 (human); compound 10.0 µM)?
The residual activity was 103%.

And the residual activity (PAK7 (human); compound 0.1 µM)?
The residual activity was 104%.

What about the residual activity (PAK7 (human); compound 1.0 µM) of the same molecule?
The residual activity was 100%.

And the residual activity (PAK7 (human); compound 10.0 µM)?
Its residual activity is 101%.

What about the residual activity (PIM2 (human); compound 0.1 µM) of the same molecule?
Its residual activity is 103%.

What about the residual activity (PIM2 (human); compound 1.0 µM) of the same molecule?
Its residual activity is 109%.

And the residual activity (PIM2 (human); compound 10.0 µM)?
Its residual activity is 97%.

And the residual activity (PIM3 (human); compound 0.1 µM)?
Its residual activity is 118%.

And the residual activity (PIM3 (human); compound 1.0 µM)?
The residual activity was 121%.

And the residual activity (PIM3 (human); compound 10.0 µM)?
Its residual activity is 107%.

And the residual activity (PKN2 (human); compound 0.1 µM)?
The residual activity was 78%.

What about the residual activity (PKN2 (human); compound 1.0 µM) of the same molecule?
The residual activity was 70%.

And the residual activity (PKN2 (human); compound 10.0 µM)?
The residual activity was 58%.

And the residual activity (PLK1 (human); compound 0.1 µM)?
Its residual activity is 106%.

What about the residual activity (PLK1 (human); compound 1.0 µM) of the same molecule?
The residual activity was 94%.

And the residual activity (PLK1 (human); compound 10.0 µM)?
Its residual activity is 96%.

What about the residual activity (RIPK2 (human); compound 0.1 µM) of the same molecule?
Its residual activity is 119%.

And the residual activity (RIPK2 (human); compound 1.0 µM)?
Its residual activity is 95%.

What about the residual activity (RIPK2 (human); compound 10.0 µM) of the same molecule?
The residual activity was 100%.

And the residual activity (RPS6KA3 KD1 KD2 (human); compound 0.1 µM)?
The residual activity was 87%.

What about the residual activity (RPS6KA3 KD1 KD2 (human); compound 1.0 µM) of the same molecule?
Its residual activity is 95%.

And the residual activity (RPS6KA3 KD1 KD2 (human); compound 10.0 µM)?
The residual activity was 81%.

What about the residual activity (RPS6KA5 KD1 KD2 (human); compound 0.1 µM) of the same molecule?
Its residual activity is 110%.

What about the residual activity (RPS6KA5 KD1 KD2 (human); compound 1.0 µM) of the same molecule?
Its residual activity is 104%.

And the residual activity (RPS6KA5 KD1 KD2 (human); compound 10.0 µM)?
Its residual activity is 95%.

And the residual activity ([3]; compound 0.1 µM)?
The residual activity was 83%.

What about the residual activity ([3]; compound 1.0 µM) of the same molecule?
Its residual activity is 87%.

What about the residual activity ([3]; compound 10.0 µM) of the same molecule?
The residual activity was 78%.

And the residual activity (SRPK1 (human); compound 0.1 µM)?
The residual activity was 92%.

And the residual activity (SRPK1 (human); compound 1.0 µM)?
The residual activity was 89%.

What about the residual activity (SRPK1 (human); compound 10.0 µM) of the same molecule?
Its residual activity is 83%.
